For 17 compounds, IC50 and Kd results are on record in publication PMC6272846, “Synthesis and p38 Inhibitory Activity of Some Novel Substituted N,N′-Diarylurea Derivatives” (Molecules, 2016).

The subject of one assay is MAPKAPK2. The experiment in a line: Inhibition of MAPKAPK2 in GFP-MAPKAPk2_BHK cell model (nuclear translocation). Type of assay: cell-based. Particulars: GFP-MAPKAPk2_BHK cells. As to the method: In order to study p38α inhibition in a cell system, we investigated the ability of all compounds to inhibit the phosphorylation of mitogen-activated protein-kinase-activated protein kinase 2 (MAPKAPK2). Each compound was prepared at […] concentrations (1, 3, 10 and 30 nM, 0.1 and 0.3 μM), and the percentages of inhibition were calculated from the numbers of cells after treatment with the different compounds.
GFP-MAPKAPk2_BHK cells were cultured in 96-well plates (2.0 × 10^4/100 μL/well) containing 10% heat-inactivated foetal bovine serum (FBS) and 1 mg/mL G418 at 37 °C in humidified air containing 5% CO2 for 18–24 h. The cells were washed with nutrient solution (100 μL/well) and changed to the compound liquid (100 μL/well). Experiments were set up with the control, and the compound was repeated at each concentration in three wells. The cells were cultured in 96-well plates at 37 °C in humidified air containing 5% CO2 for 90 min. The cells were washed with the dye solution (20 μL/well), and the dyed cells were held for 1 hour at room temperature in the dye liquid. Analysis of nuclear translocation and calculation of the ability of the compounds to inhibit nuclear translocation was performed using the IN Cell Analyzer 1000 Nuclear Trafficking Analysis Module System (GE, Madison, WI, USA). The cultured cells were treated with the obtained compounds in […] concentration grads (1, 3, 10 and 30 nM, 0.1 and 0.3 μM). The inhibitory percentage can be calculated using the amounts of cells after the disposition of the different compounds.

Assay [1] deals with TNF-α release from THP-1 cells. Kind of assay: Inhibition of TNF-α release from THP-1 cells after LPS stimulation. Type of assay: cell-based. Particulars: Homo sapiens; LPS-stimulated THP-1 cells. As to the method:
LPS stock was prepared at 1 mg/mL by adding 1 mL sterile endotoxin-free water to 1 mg LPS powder. The LPS stock was aliquoted and stored at −20 °C. […] An amount of 100 K THP-1 cells were seeded into a 96-well cell culture plate in 100 μL of test medium. […] A total of 10 μL compound was added to the plate with cells, and the cells were incubated for 1 hour at 37 °C. An amount of 10 μL/well LPS was added to stimulate the cells. The final LPS concentration was 300 ng/mL, and the DMSO concentration was 0.3%. […]. The plate was incubated for 5 hours at 37 °C. […] Three replicates were used for each dose. At the 5th hour, the TNF-α in the supernatants and standard curve samples was determined using the HTRF kit. […] Amounts of 5 μL Anti-TNF-α-Cryptate (Invitrogen, Carlsbad, CA, USA) and 5 μL Anti-TNFα-XL665 (Invitrogen) were added, and the plate was incubated at RT for 15 h. The plate was read on an Envision instrument (PerkinElmer) and the IC50 was calculated.

The next assay deals with MAPK14/p38α (Homo sapiens, UniProt Q16539). The experiment in a line: p38α MAP kinase activity, phosphorylation of ATF-2 (TR-FRET). Type of assay: biochemical. Particulars: enzyme. On the procedure: Kinase reaction buffer was composed of 50 mM HEPES (pH 7.5), 0.01% BRIJ-35, 10 mM MgCl2 and 1 mM EGTA. Prepared MAPK14/p38α in 1× kinase buffer with concentration at 500 ng/mL. A 2-fold serial dilution was performed using 1× kinase buffer from 500 ng/mL using 16 dose points. […] The reaction was started by adding 5 μL of the GFP-ATF2(19–96) substrate and ATP solution into each well of the assay plate. The final starting concentration of MAPK14/p38α was 250ng/ml, and the final GFP-ATF2 and ATP concentrations were 0.4 μM and 90 μM, respectively. The assay plate was sealed and incubated for 1 hour at room temperature (RT). Antibody solution (1 mL) was prepared from 20 mM EDTA and 4 nM Tb-antipATF2 (pThr71) antibody in TR-FRET dilution buffer. Antibody solution (10 μL) was added into each well of the assay plate and mixed gently. The final EDTA concentration was 10 mM, and the final Tb-antipATF2 (pThr71) concentration was 2 nM. The assay plate was sealed and incubated for 30 minutes at RT.
Inhibitor in 0.5% DMSO (2 μL/well) at 5-fold the final assay concentration was added into a 384-well assay plate. […] MAPK14/p38α (4 μL/well) was added to each well of the 384-well assay plate and incubated for 15 min at RT. To start the reaction, substrate GFP-ATF2 (19–96) and ATP (4 μL/well) were added into kinase reaction buffer. […] The resulting TR-FRET emission ratio was plotted against the concentration of inhibitor, and the data fitted to a sigmoidal dose-response curve with a variable slope. The IC50 concentration was calculated from the curve.
In general terms: TR-FRET usually uses a lanthanide donor and a delayed reading to cut background.

Assay [2] addresses p38α mitogen-activated protein kinase (Homo sapiens, UniProt Q16539). The experiment in a line: Surface plasmon resonance (Biacore) binding to p38α. The conditions noted are these: SPR, 25 °C. On the procedure:
To assess the binding ability between the compounds and p38α protein, we used SPR for kinase inhibitor interaction studies.
The Biacore instrument uses a technique based on surface plasmon resonance to follow the real-time binding of compounds to immobilized proteins on a carboxymethyl dextran surface in a liquid milieu. Compounds were stored as 10 mM stock solutions in 100% dimethyl sulfoxide (DMSO). All light-sensitive compounds were handled under yellow protective light. […] ATP was dissolved directly in running buffer to make a 10 mM solution. The run was started with five start-up cycles in which running buffer was injected (instead of a sample) followed by sample injection cycles. Zero concentration samples were used as blanks. A typical analysis cycle consisted of a 60 s sample injection (30 μL/min), 120–200 s of buffer flow (dissociation phase), followed by a needle and tubing wash with 50% DMSO and buffer, and finally, a 30 s buffer injection to check for sample carry over. The flow cell temperature was 25 °C. Between sample series, a solvent correction cycle was run according to the instrument manual to adjust for referencing errors due to refractive index mismatches between running buffer and samples [35].
(Surface plasmon resonance follows binding to a sensor surface in real time, without labels.)

Structures are written as SMILES.

Chain of MAPK14/p38α (Q16539 whole entry): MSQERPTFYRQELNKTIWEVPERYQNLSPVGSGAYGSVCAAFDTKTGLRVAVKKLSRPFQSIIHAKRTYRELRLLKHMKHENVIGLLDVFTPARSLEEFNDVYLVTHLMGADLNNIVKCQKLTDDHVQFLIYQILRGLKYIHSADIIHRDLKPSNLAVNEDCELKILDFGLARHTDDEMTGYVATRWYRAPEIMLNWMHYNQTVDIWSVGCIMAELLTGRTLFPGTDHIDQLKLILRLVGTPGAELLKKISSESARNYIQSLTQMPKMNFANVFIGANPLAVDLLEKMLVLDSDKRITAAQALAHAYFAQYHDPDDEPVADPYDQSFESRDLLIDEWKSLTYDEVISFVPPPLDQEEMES
Chain of p38α mitogen-activated protein kinase (Q16539 whole entry): as above

The IC50 is the concentration needed to halve the response being measured. Regarding `CC(C)(C)c1cc(NC(=O)NCc2ccccc2Oc2ccc3[nH]ncc3c2)n(-c2ccc(Cl)cc2)n1` [25e, 1-(2-((1H-Indazol-5-yl)oxy)benzyl)-3-(3-(tert-butyl)-1-(4-chlorophenyl)-1H-pyrazol-5-yl)urea], the IC50 was 0.00992 ± 0.00065 µM in the assay on MAPKAPK2 and 3.48 ± 0.46 nM in assay [1].
`CC(C)(C)c1cc(NC(=O)NCc2ccccc2Oc2ccc3c(c2)CCCC3O)n(-c2ccc([N+](=O)[O-])cc2)n1` (stereo not drawn) [27b, 1-(3-(tert-Butyl)-1-(4-nitrophenyl)-1H-pyrazol-5-yl)-3-(2-((5-hydroxy-5,6,7,8-tetrahydronaphthalen-2-yl)-oxy)benzyl)urea]: the IC50 came to 0.0985 ± 0.00589 µM in the assay with MAPKAPK2; 27.5 ± 1.21 nM in assay [1]; 0.00387 ± 0.00043 µM against MAPK14/p38α (GFP-ATF2 substrate, 90 μM ATP).
By Kd is commonly meant the concentration at which binding is half-saturated. Higher therefore signals lower affinity. Consider `Cc1cccc(-n2nc(C(C)(C)C)cc2NC(=O)NCc2ccccc2Oc2ccc3[nH]ncc3c2)c1` [25c, 1-(2-((1H-Indazol-5-yl)oxy)benzyl)-3-(3-(tert-butyl)-1-(m-tolyl)-1H-pyrazol-5-yl)urea], for which the IC50 in the assay with MAPKAPK2 was 0.0066 ± 0.00066 µM; in assay [1], 1.06 ± 0.05 nM; against MAPK14/p38α (GFP-ATF2 substrate, 90 μM ATP) it was 0.00077 ± 8e-05 µM. This compound returned a Kd in assay [2] of 421 nM.
In the case of `Cc1ccc(-n2nc(C(C)(C)C)cc2NC(=O)NCc2cc(F)ccc2Oc2ccc3c(c2)CCCC3O)cc1` (stereo not drawn) [27e, 1-(3-(tert-Butyl)-1-(p-tolyl)-1H-pyrazol-5-yl)-3-(5-fluoro-2-((5-hydroxy-5,6,7,8-tetrahydronaphthalen-2-yl)-oxy)benzyl)urea], the IC50 is 182 ± 4.35 nM in assay [1] and 0.005 ± 0.00053 µM against MAPK14/p38α (GFP-ATF2 substrate, 90 μM ATP).
In the case of `CC(C)(C)c1cc(NC(=O)NCc2ccccc2Oc2ccc3[nH]ncc3c2)n(-c2ccccc2)n1` [25b, 1-(2-((1H-Indazol-5-yl)oxy)benzyl)-3-(3-(tert-butyl)-1-phenyl-1H-pyrazol-5-yl)urea], the IC50 is 0.00245 ± 0.00059 µM in the assay with MAPKAPK2; 1 ± 0.09 nM in assay [1]; 0.0008 ± 3e-05 µM at MAPK14/p38α (GFP-ATF2 substrate, 90 μM ATP). The Kd in assay [2] turned out to be 382 nM.
As for `CC(C)(C)c1cc(NC(=O)NCc2ccccc2Oc2ccc3[nH]ncc3c2)n(-c2ccc(Br)cc2)n1` [25f, 1-(2-((1H-Indazol-5-yl)oxy)benzyl)-3-(1-(4-bromophenyl)-3-(tert-butyl)-1H-pyrazol-5-yl)urea], the IC50 was 0.0074 ± 0.00087 µM with MAPKAPK2; 1.82 ± 0.15 nM in assay [1]; 0.00073 ± 1e-05 µM on MAPK14/p38α (GFP-ATF2 substrate, 90 μM ATP).
For the compound `CC(C)(C)c1cc(NC(=O)NCc2ccccc2Oc2ccc3[nH]ncc3c2)n(-c2ccc(S(N)(=O)=O)cc2)n1` [25k, 4-(5-(3-(2-((1H-Indazol-5-yl)oxy)benzyl)ureido)-3-(tert-butyl)-1H-pyrazol-1-yl)benzenesulfonamide], the values for the IC50 (in the assay on MAPKAPK2; in assay [1]) were 0.039 ± 0.00576 µM and 8.69 ± 0.01 nM, respectively.
In the case of `COc1ccc(-n2nc(C(C)(C)C)cc2NC(=O)NCc2ccccc2Oc2ccc3[nH]ncc3c2)cc1` [25d, 1-(2-((1H-Indazol-5-yl)oxy)benzyl)-3-(3-(tert-butyl)-1-(4-methoxyphenyl)-1H-pyrazol-5-yl)urea], the IC50 was 0.00545 ± 0.00043 µM with MAPKAPK2; 1.43 ± 0.07 nM in assay [1]; 0.00122 ± 0.00032 µM on MAPK14/p38α (GFP-ATF2 substrate, 90 μM ATP).
Taken in the same sequence, the figures for `Cc1ccc(-n2nc(C(C)(C)C)cc2NC(=O)NCc2ccccc2Oc2ccc3c(c2)CCCC3O)cc1` (stereo not drawn) [27a, 1-(3-(tert-Butyl)-1-(p-tolyl)-1H-pyrazol-5-yl)-3-(2-((5-hydroxy-5,6,7,8-tetrahydronaphthalen-2-yl)oxy)-benzyl)urea] were 0.13341 ± 7e-05 µM, 15.3 ± 2.56 nM and 0.00359 ± 0.00021 µM.
Turning to `CC(C)(C)c1cc(NC(=O)NCc2ccccc2Oc2ccc3[nH]ncc3c2)n(-c2ccc([N+](=O)[O-])cc2)n1` [25h, 1-(2-((1H-Indazol-5-yl)oxy)benzyl)-3-(3-(tert-butyl)-1-(4-nitrophenyl)-1H-pyrazol-5-yl)urea], the half-inhibitory concentration (IC50) in the assay with MAPKAPK2 was determined as 0.00264 ± 0.00056 µM; in assay [1] it was 1.79 ± 0.48 nM; at MAPK14/p38α (GFP-ATF2 substrate, 90 μM ATP), 0.00082 ± 1e-05 µM. Besides, the affinity in assay [2], expressed as Kd, was 221 nM.
Regarding `CC(C)(C)c1cc(NC(=O)NCc2ccccc2Oc2ccc3[nH]ncc3c2)n(-c2ccc(F)cc2)n1` [25g, 1-(2-((1H-Indazol-5-yl)oxy)benzyl)-3-(3-(tert-butyl)-1-(4-fluorophenyl)-1H-pyrazol-5-yl)urea], the IC50 in the assay on MAPKAPK2 came to 0.00316 ± 0.00131 µM; in assay [1] it was 2 ± 0.01 nM; against MAPK14/p38α (GFP-ATF2 substrate, 90 μM ATP), 0.00066 ± 9e-05 µM.
`Cc1ccc(-n2nc(C(C)(C)C)cc2NC(=O)NCc2ccccc2Oc2ccc3[nH]ncc3c2)cc1` [25a, 1-(2-((1H-Indazol-5-yl)oxy)benzyl)-3-(3-(tert-butyl)-1-(p-tolyl)-1H-pyrazol-5-yl)urea]: the 50% inhibitory concentration (IC50) in the assay with MAPKAPK2 worked out at 0.00136 ± 0.00031 µM; in assay [1] it was 0.73 ± 0.13 nM; on MAPK14/p38α (GFP-ATF2 substrate, 90 μM ATP), 0.00047 ± 2e-05 µM. The same compound gave a Kd in assay [2] of 15.4 nM.
With `CC(C)(C)c1cc(NC(=O)NCc2ccccc2Oc2ccc3c(c2)CCCC3O)n(-c2ccccc2)n1` (stereo not drawn) [27c, 1-(3-(tert-Butyl)-1-phenyl-1H-pyrazol-5-yl)-3-(2-((5-hydroxy-5,6,7,8-tetrahydronaphthalen-2-yl)oxy)-benzyl)urea], the IC50 turned out to be 0.124 ± 0.00664 µM in the assay with MAPKAPK2; 18.4 ± 4.35 nM in assay [1]; 0.00373 ± 0.00032 µM on MAPK14/p38α (GFP-ATF2 substrate, 90 μM ATP).
As for `Cc1ccc(-n2nc(C(C)(C)C)cc2NC(=O)Nc2ccccc2Oc2ccc3[nH]ncc3c2)cc1` [29a, 1-(2-((1H-Indazol-5-yl)oxy)phenyl)-3-(3-(tert-butyl)-1-(p-tolyl)-1H-pyrazol-5-yl)urea], the 50% inhibitory concentration (IC50) with MAPKAPK2 (bound given in µM) and on MAPK14/p38α (bound given in µM) was more than 10 µM each time.
Consider `CC(C)(C)c1cc(NC(=O)NCc2cc(F)ccc2Oc2ccc3c(c2)CCCC3O)n(-c2ccc([N+](=O)[O-])cc2)n1` (stereo not drawn) [27d, 1-(3-(tert-Butyl)-1-(4-nitrophenyl)-1H-pyrazol-5-yl)-3-(5-fluoro-2-((5-hydroxy-5,6,7,8-tetrahydro-naphthalen-2-yl)oxy)benzyl)urea], for which the IC50 in assay [1] is 130 ± 3.33 nM; at MAPK14/p38α (GFP-ATF2 substrate, 90 μM ATP) it was 0.00576 ± 0.00024 µM.
For the compound `Cc1ccc(-n2nc(C(C)(C)C)cc2NC(=O)NCc2cc(F)ccc2Oc2ccc3[nH]ncc3c2)cc1` [25j, 1-(2-((1H-Indazol-5-yl)oxy)-5-fluorobenzyl)-3-(3-(tert-butyl)-1-(p-tolyl)-1H-pyrazol-5-yl)urea], the half-inhibitory concentration (IC50) was found to be 0.00361 ± 0.00243 µM with MAPKAPK2 and 0.00153 ± 7e-05 µM against MAPK14/p38α (GFP-ATF2 substrate, 90 μM ATP).
Taken in the same sequence, the figures for `CC(C)(C)c1cc(NC(=O)Nc2ccc(Oc3ccc4[nH]ncc4c3)c3c2OCC=C3)n(-c2ccccc2)n1` [26b, 1-(5-((1H-Indazol-5-yl)oxy)-2H-chromen-8-yl)-3-(3-(tert-butyl)-1-phenyl-1H-pyrazol-5-yl)urea] were 0.0223 ± 0.00188 µM and 0.00514 ± 0.00033 µM.
